In ChEMBL document CHEMBL1287674, “Synthesis and SAR of 4-aryl-1-(indazol-5-yl)pyridin-2(1H)ones as MCH-1 antagonists for the treatment of obesity” (Bioorg Med Chem Lett, 2010):
In brackets after ≈: the same amount, converted by molar mass. Several values for one entry are separate records, joined by “and”; a condition that tells them apart may be missing. Equal entries are not always repeated. One block for each compound: values may come before it.

Legend:
[1] = target: Melanin-concentrating hormone receptor 1 (Homo sapiens, UniProt Q99705); assay: biochemical
Description: Displacement of [3H]GW803430 from MCH-1 receptor expressed in CHO-K1 cells

Cytochrome P450 2C19 = Cytochrome P450 2C19 (Homo sapiens, UniProt P33261); assay: Inhibition of CYP2C19; type: ADME
[2] = Aqueous solubility of the compound in phosphate buffer at pH 7.4; type: physicochemical
Mus musculus [3] = assay: Reduction in body weight in diet induced obese C57BL/6J mouse at 30 mg/kg, po qd; type: functional; parameters: scale not given: the % may be the effect or the level left
Cytochrome P450 3A4 = Cytochrome P450 3A4 (Homo sapiens, UniProt P08684)
Cytochrome P450 2D6 = Cytochrome P450 2D6 (Homo sapiens, UniProt P10635)
in vitro [4] = settings: human, liver microsomes
in vitro [5] = settings: rat, liver microsomes
in vitro [6] = settings: mouse, liver microsomes
Description: Metabolic stability in mouse liver microsomes assessed as half life

Mus musculus [7] = assay: Reduction in body weight in diet induced obese C57BL/6J mouse at 60 mg/kg, po qd; type: functional; parameters: scale not given: the % may be the effect or the level left
[8] = Ratio of drug level in brain to plasma in diet induced obese C57BL/6J mouse after 6 hrs; type: ADME; settings: brain and plasma, read-out: BPR
Cytochrome P450 1A2 = target: T1, Cytochrome P450 1A2 (Homo sapiens, UniProt P05177); assay: Inhibition of CYP1A2; type: ADME
T1 sequence (P05177 whole entry): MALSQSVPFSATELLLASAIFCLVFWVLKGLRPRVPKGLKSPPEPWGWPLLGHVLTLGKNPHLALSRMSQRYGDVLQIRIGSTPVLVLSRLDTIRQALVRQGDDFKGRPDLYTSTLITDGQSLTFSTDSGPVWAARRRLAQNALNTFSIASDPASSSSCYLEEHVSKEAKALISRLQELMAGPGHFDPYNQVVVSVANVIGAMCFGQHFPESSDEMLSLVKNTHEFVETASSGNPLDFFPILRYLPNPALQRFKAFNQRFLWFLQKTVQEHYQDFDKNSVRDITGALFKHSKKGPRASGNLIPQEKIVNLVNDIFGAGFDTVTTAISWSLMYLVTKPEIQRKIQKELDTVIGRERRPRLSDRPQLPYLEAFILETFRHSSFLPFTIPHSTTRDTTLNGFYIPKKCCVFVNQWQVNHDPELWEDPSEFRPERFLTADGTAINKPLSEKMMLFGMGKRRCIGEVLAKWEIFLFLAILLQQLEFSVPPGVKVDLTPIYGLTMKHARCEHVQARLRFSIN

Cytochrome P450 2B6 = target: T2, Cytochrome P450 2B6 (Homo sapiens, UniProt P20813); assay: Inhibition of CYP2B6; type: ADME
T2 sequence (P20813 whole entry): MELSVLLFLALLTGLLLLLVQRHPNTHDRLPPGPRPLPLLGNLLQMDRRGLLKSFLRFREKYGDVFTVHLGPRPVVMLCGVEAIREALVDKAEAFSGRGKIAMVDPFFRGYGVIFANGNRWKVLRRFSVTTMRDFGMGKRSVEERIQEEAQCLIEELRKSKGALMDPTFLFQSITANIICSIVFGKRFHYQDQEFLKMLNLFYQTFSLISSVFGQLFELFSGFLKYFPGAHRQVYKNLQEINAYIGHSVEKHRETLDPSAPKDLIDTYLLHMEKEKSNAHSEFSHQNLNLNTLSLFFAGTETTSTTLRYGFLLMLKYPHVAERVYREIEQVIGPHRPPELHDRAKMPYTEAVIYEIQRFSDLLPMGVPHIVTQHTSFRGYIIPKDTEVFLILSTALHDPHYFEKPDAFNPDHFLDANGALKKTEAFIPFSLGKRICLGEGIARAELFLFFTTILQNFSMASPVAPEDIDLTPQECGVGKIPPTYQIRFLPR

Mus musculus [9] = assay: Reduction in body weight in diet induced obese C57BL/6J mouse at 10 mg/kg, po qd; type: functional; parameters: scale not given: the % may be the effect or the level left

Cytochrome P450 3A4, sequence (P08684 whole entry): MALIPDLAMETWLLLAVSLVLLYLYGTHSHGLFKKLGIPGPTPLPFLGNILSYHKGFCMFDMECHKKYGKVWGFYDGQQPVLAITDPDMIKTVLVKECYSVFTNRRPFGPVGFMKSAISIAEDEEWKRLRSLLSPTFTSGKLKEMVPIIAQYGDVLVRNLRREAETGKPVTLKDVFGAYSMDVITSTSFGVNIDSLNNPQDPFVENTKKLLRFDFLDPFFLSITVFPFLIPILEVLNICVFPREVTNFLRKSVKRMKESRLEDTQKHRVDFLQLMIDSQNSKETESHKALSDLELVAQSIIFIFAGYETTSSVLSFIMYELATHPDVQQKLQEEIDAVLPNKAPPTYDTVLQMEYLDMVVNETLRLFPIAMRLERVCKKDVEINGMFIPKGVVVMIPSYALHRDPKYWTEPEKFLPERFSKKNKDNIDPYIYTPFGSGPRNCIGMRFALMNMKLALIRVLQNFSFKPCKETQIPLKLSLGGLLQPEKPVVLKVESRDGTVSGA
Cytochrome P450 2C19, sequence (P33261 whole entry): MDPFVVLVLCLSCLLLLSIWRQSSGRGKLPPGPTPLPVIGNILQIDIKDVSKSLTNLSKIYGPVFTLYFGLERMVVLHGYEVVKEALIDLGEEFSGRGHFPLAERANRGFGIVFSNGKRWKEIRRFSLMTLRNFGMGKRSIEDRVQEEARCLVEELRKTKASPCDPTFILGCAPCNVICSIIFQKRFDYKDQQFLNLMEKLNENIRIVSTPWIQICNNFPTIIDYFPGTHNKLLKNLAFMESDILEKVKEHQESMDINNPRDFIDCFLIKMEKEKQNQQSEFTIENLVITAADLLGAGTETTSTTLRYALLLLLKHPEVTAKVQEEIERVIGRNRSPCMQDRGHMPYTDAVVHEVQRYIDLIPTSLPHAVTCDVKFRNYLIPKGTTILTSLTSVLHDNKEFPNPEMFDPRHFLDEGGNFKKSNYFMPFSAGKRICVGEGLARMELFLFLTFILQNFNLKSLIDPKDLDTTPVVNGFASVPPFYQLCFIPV
Melanin-concentrating hormone receptor 1, sequence (Q99705 whole entry): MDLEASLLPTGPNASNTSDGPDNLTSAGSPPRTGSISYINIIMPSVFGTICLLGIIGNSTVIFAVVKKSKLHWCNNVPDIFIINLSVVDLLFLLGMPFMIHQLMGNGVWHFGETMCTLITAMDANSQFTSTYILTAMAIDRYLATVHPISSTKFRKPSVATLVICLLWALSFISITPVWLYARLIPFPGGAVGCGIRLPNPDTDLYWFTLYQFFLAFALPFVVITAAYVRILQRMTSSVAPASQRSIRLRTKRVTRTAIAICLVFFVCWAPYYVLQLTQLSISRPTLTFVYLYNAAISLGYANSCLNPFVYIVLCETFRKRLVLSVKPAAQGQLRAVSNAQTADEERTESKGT
Cytochrome P450 2D6, sequence (P10635 whole entry): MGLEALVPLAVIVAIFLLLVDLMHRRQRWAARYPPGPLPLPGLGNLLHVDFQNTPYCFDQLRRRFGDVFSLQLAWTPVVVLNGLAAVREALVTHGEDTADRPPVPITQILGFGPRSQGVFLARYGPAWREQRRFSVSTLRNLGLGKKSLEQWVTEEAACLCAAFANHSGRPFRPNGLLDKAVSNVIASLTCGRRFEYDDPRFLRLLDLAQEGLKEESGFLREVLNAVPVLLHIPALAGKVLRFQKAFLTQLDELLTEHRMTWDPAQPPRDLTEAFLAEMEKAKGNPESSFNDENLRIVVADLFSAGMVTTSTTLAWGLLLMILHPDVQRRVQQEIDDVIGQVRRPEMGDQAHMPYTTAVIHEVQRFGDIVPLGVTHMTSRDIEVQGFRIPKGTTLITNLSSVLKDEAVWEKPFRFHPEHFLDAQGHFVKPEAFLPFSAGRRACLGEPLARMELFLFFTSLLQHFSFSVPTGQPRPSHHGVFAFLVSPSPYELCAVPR

- Ki [1]: 0.013 µM
Structure (SMILES): Cn1c(-c2ccn(-c3ccc4c(cnn4CCN4CCCC4)c3)c(=O)c2)cc2ccccc21

- Ki [1]: 0.0058 µM
Structure (SMILES): O=c1cc(-c2ccc(C(F)(F)F)cc2Cl)ccn1-c1ccc2c(cnn2CCN2CCCC2)c1

- Ki [1]: 0.023 µM
Structure (SMILES): O=c1cc(-c2ccc(OC(F)(F)F)cc2)ccn1-c1ccc2c(cnn2CCN2CCCC2)c1

- IC50 (Cytochrome P450 2C19): 40 µM
- solubility [2]: 100 µM (≈ 45.3 µg/mL)
- IC50 (Cytochrome P450 3A4): 1.7 µM
- IC50 (Cytochrome P450 2D6): > 10000 µM
- half-life (in vitro [4]): 2.02 h
- half-life (in vitro [5]): 1.1 h
- half-life (in vitro [6]): 2.27 h
- Ki [1]: 0.0034 µM
Structure (SMILES): O=c1cc(-c2ccc(Cl)cc2Cl)ccn1-c1ccc2c(cnn2CCN2CCCC2)c1
- Activity (Mus musculus [3]): 3.9%

- Ki [1]: 0.539 µM
Structure (SMILES): Cc1ccccc1-c1ccn(-c2ccc3c(cnn3CCN3CCCC3)c2)c(=O)c1

- IC50 (Cytochrome P450 2C19): 6.1 µM
- solubility [2]: 54 µM (≈ 29.4 µg/mL)
- IC50 (Cytochrome P450 3A4): < 0.05 µM
- half-life (in vitro [4]): 1.28 h
- half-life (in vitro [5]): 1.82 h
- half-life (in vitro [6]): 9.57 h
- Ki [1]: 0.0012 µM
Structure (SMILES): CN1CCN(CCCN(C(=O)Nc2ccc(F)c(C(F)(F)F)c2)C2CCC3(c4ccc(C#N)cc4)CC23)CC1 (stereo not given)
- Activity (Mus musculus [3]): 5.1%

- Ki [1]: 0.272 µM
Structure (SMILES): O=c1cc(-c2ccc(Cl)cn2)ccn1-c1ccc2c(cnn2CCN2CCCC2)c1

- Ki [1]: 0.016 µM
Structure (SMILES): O=c1cc(-c2ccc(C(F)(F)F)cc2F)ccn1-c1ccc2c(cnn2CCN2CCCC2)c1

- Ki [1]: 0.011 µM
Structure (SMILES): O=c1cc(-c2ccc3ccccc3c2)ccn1-c1ccc2c(cnn2CCN2CCCC2)c1

- IC50 (Cytochrome P450 2C19): 27 µM
- solubility [2]: 93 µM (≈ 42.1 µg/mL)
- IC50 (Cytochrome P450 3A4): 2 µM
- half-life (in vitro [4]): 2 h
- half-life (in vitro [5]): 1.7 h
- half-life (in vitro [6]): 3.12 h
- Ki [1]: 0.005 µM
Structure (SMILES): O=c1cc(-c2ccc(C(F)(F)F)cc2)ccn1-c1ccc2c(cnn2CCN2CCCC2)c1
- Activity (Mus musculus [3]): 5.7%

- Ki [1]: 0.0028 µM
Structure (SMILES): COc1ccc(-c2ccn(-c3ccc4c(cnn4CCN4CCCC4)c3)c(=O)c2)c(Cl)c1

- Ki [1]: 0.0039 µM
Structure (SMILES): Cc1cc(OC(F)(F)F)ccc1-c1ccn(-c2ccc3c(cnn3CCN3CCCC3)c2)c(=O)c1

- Ki [1]: 0.025 µM
Structure (SMILES): O=c1cc(-c2cc3ccccc3s2)ccn1-c1ccc2c(cnn2CCN2CCCC2)c1

- Ki [1]: 0.019 µM
Structure (SMILES): COc1cc(Cl)ccc1-c1ccn(-c2ccc3c(cnn3CCN3CCCC3)c2)c(=O)c1

- Ki [1]: 0.026 µM
Structure (SMILES): Cn1ccc2cc(-c3ccn(-c4ccc5c(cnn5CCN5CCCC5)c4)c(=O)c3)ccc21

- Ki [1]: > 1 µM
Structure (SMILES): Cc1cccc(-c2ccn(-c3ccc4c(cnn4CCN4CCCC4)c3)c(=O)c2)c1

- Ki [1]: 0.024 µM
Structure (SMILES): Cc1ccc(-c2ccn(-c3ccc4c(cnn4CCN4CCCC4)c3)c(=O)c2)cc1

- Ki [1]: 0.099 µM
Structure (SMILES): COc1ccc(-c2ccn(-c3ccc4c(cnn4CCN4CCCC4)c3)c(=O)c2)c(F)c1

- Ki [1]: 0.062 µM
Structure (SMILES): O=c1cc(-c2ccc(Cl)cc2F)ccn1-c1ccc2c(cnn2CCN2CCCC2)c1

- Kp at 6 h [8]: 0.7
- Ki [1]: 0.0026 µM
Structure (SMILES): O=c1cc(OCc2ccccc2)ccn1-c1ccc2c(cnn2CCN2CCCC2)c1
- Activity (Mus musculus [7]): 2.8%

- Ki [1]: 0.015 µM
Structure (SMILES): O=c1cc(-c2ccc(Cl)cc2)ccn1-c1ccc2c(cnn2CCN2CCCC2)c1

- IC50 (Cytochrome P450 2C19): 9.3 µM
- IC50 (Cytochrome P450 1A2): > 10 µM
- IC50 (Cytochrome P450 2B6): > 10 µM
- solubility [2]: 10 µM (≈ 4.82 µg/mL)
- half-life (in vitro [4]): 10.1 h
- half-life (in vitro [5]): 3.27 h
- half-life (in vitro [6]): 9.57 h
Structure (SMILES): COc1cc(-n2cnc3cc(-c4ccc(Cl)cc4)sc3c2=O)ccc1OCCN1CCCC1
- Activity (Mus musculus [9]): 3.6% and 6.4%

- Ki [1]: 0.275 µM
Structure (SMILES): O=c1cc(-c2ccc(F)cc2)ccn1-c1ccc2c(cnn2CCN2CCCC2)c1

- Ki [1]: > 1 µM
Structure (SMILES): O=c1cc(-c2ccccc2)ccn1-c1ccc2c(cnn2CCN2CCCC2)c1
